Measurements as given in US10287276B2, “Heteroaryl-1,2,4-triazole and heteroaryl-tetrazole compounds for controlling ectoparasites” (Elanco Tiergesundheit AG, priority 2016, dated 2019).

What was measured:
[1] = test system: Ctenocephalides Felis (Cat Flea); assay: Activity in vitro against Ctenocephalides felis (cat flea), Assay B; settings: % mortality at 48 hours post infestation; for pest or weed control at 10 ppm: Ctenocephalides felis, at 10 ppm in bovine blood, read-out: efficacy (EC50)
Description: Activity In Vitro Against Ctenocephalides Felis (Cat Flea)—Assay B
Test compounds are added to organic bovine blood contained in an artificial feeding container. Compounds with known insecticidal activity are included to serve as positive controls. Newly emerged unfed adult fleas from a laboratory colony are aspirated into each vial. The test cages are maintained using the artificial feeding apparatus to allow ingestion of compound. Fleas are evaluated for % mortality at 48 hours post infestation. Fleas showing normal movement and/or jumping ability are considered viable and those showing no movement are scored as dead.

[2] = test system: Lucilla Cuprina (Australian Sheep Blowfly); assay: Activity in vitro against Lucilla cuprina (Australian sheep blowfly), Assay B; set-up: species or system L. cuprina; settings: larvae, percent mortality at 24 hours; for pest or weed control at 10 ppm: Lucilia cuprina, compound in bovine serum, read-out: efficacy (EC50)
Description: Activity In Vitro Against Lucilla Cuprina (Australian Sheep Blowfly)—Assay B
Compound formulated in bovine serum is dispensed into scintillation. A dental cotton roll is added to each vial to absorb the compound solution. L. cuprina larvae are added to each treatment vial. The vials are capped and held for 24 hours in an environmental chamber at appropriate temperature, humidity and light/dark cycles. Evaluations are only made at 24 hours because dead larvae after 24 hours may be cannibalized by the remaining live ones. Vials are examined for percent mortality.

[3] = test system: Rhipicephalus sanguineus (Dog Tick); assay: Activity in vitro against Rhipicephalus sanguineus (dog tick), Assay B, coated glass vials; settings: contact with coated vials, assessment at 48 hours; for pest or weed control at 20 ppm: Rhipicephalus sanguineus, read-out: efficacy (EC50)
Description: Activity In Vitro Against Rhipicephalus sanguineus (Dog Tick)—Assay B
A solution of the test compounds is used to coat the inner wall of glass vials containing a filter paper on the bottom of each vial. A second filter paper is also coated and placed in the cap of the vial. Vials and caps are allowed to dry overnight. Each treated vial is infested with ticks. Contact of the ticks with residues is induced by holding the vials in a controlled environment and assessment is performed at 48 hours after application in comparison with untreated glass vials and solvent-treated glass vials.

Structure (SMILES)	pest or weed control at 10 ppm [1] [%]	pest or weed control at 10 ppm [2] [%]	pest or weed control at 20 ppm [3] [%]	EC50 [1] [ppm]	EC50 [2] [ppm]	EC50 [3] [ppm]
C[C@H](NC(=O)c1cccc(C#N)c1)c1ncnn1-c1ncc(F)cn1 [Example 68, 3-Cyano-N-[(1S)-1-[2-(5-fluoropyrimidin-2-yl)-1,2,4-triazol-3-yl]ethyl]benzamide]	> 50	> 50	> 50	–	–	–
CC(NC(=O)c1cc(C(F)(F)F)cc(C(F)(F)F)c1)c1ncnn1-c1ncccn1 (centres unmarked) [Example 63, N-[1-(2-Pyrimidin-2-yl-1,2,4-triazol-3-yl)ethyl]-3,5-bis(trifluoromethyl)benzamide]	> 50	> 50	> 50	–	–	–
CCN(C(=O)c1cc(C#N)cc(C(F)(F)F)c1)C(C)c1ncnn1-c1ncccn1 (centres unmarked) [Example 59, 3-Cyano-N-ethyl-N-[1-(2-pyrimidin-2-yl-1,2,4-triazol-3-yl)ethyl]-5-(trifluoromethyl)benzamide]	> 50	> 50	> 50	1.6	0.77	14
Cc1nc(C(C)N(CC2CC2)C(=O)c2cc(C(F)(F)F)cc(C(F)(F)F)c2)n(-c2ncccn2)n1 (centres unmarked) [Example 61, N-(Cyclopropylmethyl)-N-[1-(5-methyl-2-pyrimidin-2-yl-1,2,4-triazol-3-yl)ethyl]-3,5-bis(trifluoromethyl)benzamide]	> 50	> 50	> 50	–	–	–
CCN(C(=O)c1cc(C(F)(F)F)cc(C(F)(F)F)c1)C(C)c1ncnn1-c1ncccn1 (centres unmarked) [Example 53, N-Ethyl-N-[1-(2-pyrimidin-2-yl-1,2,4-triazol-3-yl)ethyl]-3,5-bis(trifluoromethyl)benzamide]	> 50	> 50	–	–	–	–
COC(=O)c1nc(C(C)NC(=O)c2cc(C(F)(F)F)cc(C(F)(F)F)c2)n(-c2ncccn2)n1 (centres unmarked) [Example 74, Methyl 5-[1-[[3,5-bis(trifluoromethyl)benzoyl]amino]ethyl]-1-pyrimidin-2-yl-1,2,4-triazole-3-carboxylate]	–	–	> 50	–	–	–
CC(c1ncnn1-c1ncccn1)N(CC1CC1)C(=O)c1cc(C(F)(F)F)nc(C(F)(F)F)c1 (centres unmarked) [Example 51, N-(Cyclopropylmethyl)-N-[1-(2-pyrimidin-2-yl-1,2,4-triazol-3-yl)ethyl]-2,6-bis(trifluoromethyl)pyridine-4-carboxamide]	> 50	> 50	–	–	–	–
C[C@@H](c1ncnn1-c1ncccn1)N(C)C(=O)c1cc(C(F)(F)F)cc(C(F)(F)F)c1 [Example 75, N-Methyl-N-[(1S)-1-(2-pyrimidin-2-yl-1,2,4-triazol-3-yl)ethyl]-3,5-bis(trifluoromethyl)benzamide]	> 50	> 50	> 50	–	–	–
C[C@@H](c1ncnn1-c1ncc(F)cn1)N(CC1CC1)C(=O)c1cc(C(F)(F)F)cc(C(F)(F)F)c1 [Example 64, N-(Cyclopropylmethyl)-N-[(1S)-1-[2-(5-fluoropyrimidin-2-yl)-1,2,4-triazol-3-yl]ethyl]-3,5-bis(trifluoromethyl)benzamide]	> 50	> 50	–	–	–	–
CC(NC(=O)c1cc(C#N)cc(C(F)(F)F)c1)c1ncnn1-c1ncccn1 (centres unmarked) [Example 57, 3-Cyano-N-[1-(2-pyrimidin-2-yl-1,2,4-triazol-3-yl)ethyl]-5-(trifluoromethyl)benzamide]	> 50	> 50	–	–	–	–
CC(c1ncnn1-c1ncccn1)N(C)C(=O)c1cccc(C#N)c1 (centres unmarked) [Example 55, 3-Cyano-N-methyl-N-[1-(2-pyrimidin-2-yl-1,2,4-triazol-3-yl)ethyl]benzamide]	> 50	–	> 50	–	–	–
CC(c1ncnn1-c1ncccn1)N(C)C(=O)c1cc(C(N)=S)cc(C(F)(F)F)c1 (centres unmarked) [Example 72, 3-Carbamothioyl-N-methyl-N-[1-(2-pyrimidin-2-yl-1,2,4-triazol-3-yl)ethyl]-5-(trifluoromethyl)benzamide]	> 50	> 50	–	–	–	–
CC(c1ncnn1-c1ncccn1)N(C)C(=O)c1cc(C#N)cc(C(F)(F)F)c1 (centres unmarked) [Example 60, 3-Cyano-N-methyl-N-[1-(2-pyrimidin-2-yl-1,2,4-triazol-3-yl)ethyl]-5-(trifluoromethyl)benzamide]	> 50	> 50	> 50	–	–	–
CC(c1ncnn1-c1ncccn1)N(C)C(=O)c1cc(C(F)(F)F)cc(C(F)(F)F)c1 (centres unmarked) [Example 65, N-Methyl-N-[1-(2-pyrimidin-2-yl-1,2,4-triazol-3-yl)ethyl]-3,5-bis(trifluoromethyl)benzamide]	> 50	> 50	> 50	–	–	–
C[C@H](NC(=O)c1cc(C(F)(F)F)cc(C(F)(F)F)c1)c1ncnn1-c1ncc(F)cn1 [Example 69, N-[(1S)-1-[2-(5-Fluoropyrimidin-2-yl)-1,2,4-triazol-3-yl]ethyl]-3,5-bis(trifluoromethyl)benzamide]	> 50	> 50	> 50	–	–	–
CC(c1ncnn1-c1ncccn1)N(C[Si](C)(C)C)C(=O)c1cc(C(F)(F)F)cc(C(F)(F)F)c1 (centres unmarked) [Example 67, N-[1-(2-pyrimidin-2-yl-1,2,4-triazol-3-yl)ethyl]-3,5-bis(trifluoromethyl)-N-(trimethylsilylmethyl)benzamide]	> 50	> 50	> 50	–	–	–
CC(c1ncnn1-c1ncccn1)N(CC1CC1)C(=O)c1cc(Br)cc(C(F)(F)F)c1 (centres unmarked) [Example 62, 3-Bromo-N-(cyclopropylmethyl)-N-[1-(2-pyrimidin-2-yl-1,2,4-triazol-3-yl)ethyl]-5-(trifluoromethyl)benzamide]	–	> 50	> 50	–	–	–
C#CCN(C(=O)c1cc(C#N)cc(C(F)(F)F)c1)C(C)c1ncnn1-c1ncccn1 (centres unmarked) [Example 58, 3-Cyano-N-prop-2-ynyl-N-[1-(2-pyrimidin-2-yl-1,2,4-triazol-3-yl)ethyl]-5-(trifluoromethyl)benzamide]	> 50	> 50	> 50	–	–	–
C#CCN(C(=O)c1cccc(C#N)c1)C(C)c1ncnn1-c1ncccn1 (centres unmarked) [Example 54, 3-Cyano-N-prop-2-ynyl-N-[1-(2-pyrimidin-2-yl-1,2,4-triazol-3-yl)ethyl]benzamide]	> 50	–	> 50	–	–	–
CCOC(OCC)c1nc(C(C)NC(=O)c2cc(C(F)(F)F)cc(C(F)(F)F)c2)n(-c2ncccn2)n1 (centres unmarked) [Example 73, N-[1-[5-(Diethoxymethyl)-2-pyrimidin-2-yl-1,2,4-triazol-3-yl]ethyl]-3,5-bis(trifluoromethyl)benzamide]	> 50	–	> 50	–	–	–
C[C@@H](c1ncnn1-c1ncccn1)N(CC1CC1)C(=S)c1cc(C(F)(F)F)cc(C(F)(F)F)c1 [Example 70]	> 50	> 50	> 50	–	–	–
CC(c1ncnn1-c1ncccn1)N(CC1CC1)C(=O)c1cc(C#N)cc(C(F)(F)F)c1 (centres unmarked) [Example 50, 3-Cyano-N-(cyclopropylmethyl)-N-[1-(2-pyrimidin-2-yl-1,2,4-triazol-3-yl)ethyl]-5-(trifluoromethyl)benzamide]	> 50	> 50	> 50	–	–	–
CC(c1ncnn1-c1ncccn1)N(CC#N)C(=O)c1cc(C(F)(F)F)cc(C(F)(F)F)c1 (centres unmarked) [Example 56, N-(Cyanomethyl)-N-[1-(2-pyrimidin-2-yl-1,2,4-triazol-3-yl)ethyl]-3,5-bis(trifluoromethyl)benzamide]	> 50	> 50	–	–	–	–
C[C@H](NC(=O)c1cc(C(F)(F)F)cc(C(F)(F)F)c1)c1ncnn1-c1ncccn1 [Example 66, N-[(1S)-1-(2-Pyrimidin-2-yl-1,2,4-triazol-3-yl)ethyl]-3,5-bis(trifluoromethyl)benzamide]	> 50	> 50	–	–	–	–
